Test results: patent publication US12281079B2, “Quinoline derivatives, processes for their preparation and uses thereof for the treatment of cancer” (Lead Discovery Center GmbH, priority 2019, dated 2025)

Experiments:
[1] = system: mitochondrial transcription (7S RNA) in HeLa cells; assay: Quantitative real time-PCR assay of inhibition of mitochondrial transcription (7S RNA) in HeLa cells; format: cell-based; settings: Homo sapiens, 4 h compound incubation, according to Example 5, read-out: cellular qPCR assay
Method: Quantitative real-time PCR (qRT-PCR), based on the TaqMan™ (Thermo Fisher Scientific, Waltham Mass.) technology, was carried out essentially as described in Held et al. (1996). HeLa cells were plated one day before compound treatment in RPMI medium supplemented with 10% Fetal Calf Serum and 2 mM L-glutamine. Cells were incubated with dilution series of compounds or vehicle (DMSO) for 4 h, prior to harvest and extraction of the RNA using the RNeasy Mini Kit (Qiagen, Hilden D), according to the manufacturer's instructions. RNA concentrations were measured spectroscopically, using a NanoDrop-2000 (Thermo Fisher Scientific, Waltham Mass.) and normalized prior to cDNA synthesis, using a ‘High-Capacity cDNA Reverse Transcription Kit’ (Thermo Fisher Scientific, Waltham Mass.). qRT-PCR was carried out using the ‘TaqMan Fast Advance Master Mix’ (Thermo Fisher Scientific, Waltham Mass.) on a 7500 Fast Real-Time PCR machine (Applied Biosystems, Foster City Calif.)
For these measurements, three genes were used to compare the effect of the scrutinized compounds in relation to their concentration. The POLRMT-gene was used to detect potential influences on nuclear transcription. Mitochondrial transcription in vivo was monitored by measurements 7S RNA. The TBP (TATA-box binding protein) gene was employed as the control (housekeeping gene) during qRT-PCR. The short-lived mitochondrial 7S RNA, which is not post-transcriptionally stabilized, allowed us to monitor rapid changes in mitochondrial transcription activity following compound addition. Biological triplicates were analyzed using the comparative CT Method (ΔΔCt) method (Bubner and Baldwin, 2004) and reported as Rq % values (Rq=Relative quantification=2−ΔΔCt).

[2] = molecular target: mitochondrial RNA polymerase (POLRMT) (Mus musculus, UniProt Q8BKF1); assay: Homogeneous TR-FRET assay for mitochondrial transcription activity; format: biochemical; settings: homogeneous TR-FRET assay according to Example 4
Sequence of mitochondrial RNA polymerase (POLRMT) (Q8BKF1 42-1207): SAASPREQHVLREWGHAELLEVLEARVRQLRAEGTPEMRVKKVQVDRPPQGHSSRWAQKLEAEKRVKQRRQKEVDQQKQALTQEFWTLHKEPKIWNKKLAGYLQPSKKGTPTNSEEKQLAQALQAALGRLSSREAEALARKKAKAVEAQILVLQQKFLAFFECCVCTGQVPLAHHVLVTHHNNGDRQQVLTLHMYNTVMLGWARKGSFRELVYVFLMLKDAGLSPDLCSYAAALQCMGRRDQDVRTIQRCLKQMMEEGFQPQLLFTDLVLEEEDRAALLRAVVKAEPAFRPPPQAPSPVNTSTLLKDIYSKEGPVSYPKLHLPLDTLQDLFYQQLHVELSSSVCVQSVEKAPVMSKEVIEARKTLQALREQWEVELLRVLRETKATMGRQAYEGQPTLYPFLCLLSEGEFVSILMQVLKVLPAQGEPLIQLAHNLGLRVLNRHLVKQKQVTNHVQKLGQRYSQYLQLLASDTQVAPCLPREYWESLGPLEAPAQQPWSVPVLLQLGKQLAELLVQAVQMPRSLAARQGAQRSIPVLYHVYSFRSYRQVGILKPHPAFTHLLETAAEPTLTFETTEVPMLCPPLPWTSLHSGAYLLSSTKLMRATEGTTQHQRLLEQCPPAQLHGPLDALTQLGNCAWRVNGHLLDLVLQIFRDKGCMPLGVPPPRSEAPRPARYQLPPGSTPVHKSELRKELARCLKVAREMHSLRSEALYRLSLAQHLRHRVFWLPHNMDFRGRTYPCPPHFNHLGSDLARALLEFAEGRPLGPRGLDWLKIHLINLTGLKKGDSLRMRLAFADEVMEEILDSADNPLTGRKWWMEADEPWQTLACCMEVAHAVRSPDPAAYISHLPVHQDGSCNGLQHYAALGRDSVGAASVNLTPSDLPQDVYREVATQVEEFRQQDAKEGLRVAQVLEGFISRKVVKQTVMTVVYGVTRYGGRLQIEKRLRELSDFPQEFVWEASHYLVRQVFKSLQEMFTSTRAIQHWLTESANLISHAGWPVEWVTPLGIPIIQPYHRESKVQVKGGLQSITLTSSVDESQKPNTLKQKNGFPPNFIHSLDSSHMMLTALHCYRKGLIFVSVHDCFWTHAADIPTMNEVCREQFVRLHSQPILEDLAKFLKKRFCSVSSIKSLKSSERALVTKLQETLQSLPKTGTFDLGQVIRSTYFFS
Description: The TR-FRET assay was basically conducted as described in WO2016/193231A1, especially as described in example 1 (hereby incorporated by reference). With respect to the back ground of the mitochondrial transcription it is referred to Falkenberg et al. (2002) and Posse et al. (Posse et al., 2015). The method monitors the activity of mitochondrial RNA-polymerase via detection of the formation of its product, a 407 bp long RNA sequence. Detection of the product is facilitated by hybridization of two DNA-oligonucleotide probes to specific and adjacent sequences within the RNA product sequence. Upon annealing of the probes, two fluorophores that are coupled directly to an acceptor nucleotide probe (ATT0647, 5′) or introduced via a coupled streptavidin interacting with a biotinylated donor nucleotide probe on the other side (Europium cryptate, 3′) are brought into sufficient proximity to serve as a fluorescence-donor-acceptor pair as generally described in Walters and Namchuk (2003). Thus, a FRET signal at 665 nm is generated upon excitation at 340 nm.
Briefly, the protocol described here was applied for screening and activity determination in a low-volume 384-well microtiter plate with non-binding surface. For high-throughput application in the 1536-well microtiter plate format, volumes of the reagent mixes were adjusted, maintaining the volumetric ratio. Proteins POLRMT (NM_172551.3), TFAM (NM_009360.4) and TFB2M (NM_008249.4) were diluted from their stocks to working concentrations of 150 nM, 1.8 μM and 330 nM respectively, in a dilution buffer containing 100 mM Tris-HCl pH 8.0, 200 mM NaCl, 10% (v/v) glycerole, 2 mM glutathione (GSH), 0.5 mM EDTA and 0.1 mg/mL BSA. Protein dilutions and template DNA, comprising a pUC18 plasmid encoding the mitochondrial light strand promoter, restriction linearized proximal to the promoter 3′-end (pUC-LSP), were mixed at the twofold final assay-concentration in a reaction buffer, containing 10 mM Tris-HCl pH 7.5, 10 mM MgCl2, 40 mM NaCl, 2 mM GSH, 0.01% (w/v) Tween-20 and 0.1 mg/mL BSA.
5 μL of this mix were dispensed, depending on the chosen microtiter plate format, using multi-channel pipettes or a Multidrop® dispenser (Thermo Fisher Scientific, Waltham Mass.) into the wells of a microtiter plate and incubated at room temperature (rt) for 10 min. Chemical compounds under scrutiny in the assay were applied using contact-free acoustic droplet-dispensing (Echo520® Labcyte Inc., Sunnyvale Calif.) from 10 mM compound stocks in 100% DMSO, to a final concentration of 10 μM or in serial dilution series of the required concentration range. Equal amounts of DMSO without any compound were added to positive control samples, followed by an incubation step at rt for 10 min.
The enzymatic reaction was started by the addition of 5 μL of a mix of dNTPs in reaction buffer to a final concentration of 500 μM each. No nucleotide mix was added to negative control samples. The content of the wells was mixed using a VarioTeleshaker™ (Thermo Fisher Scientific, Waltham Mass.) at 1500 rpm for 45 sec after which the microtiter plate was centrifuged at 500×g for 1 min. The samples were incubated for 2 h at rt with humidity control to avoid evaporation. The detection reagents were prepared in a buffer that was composed, such that the enzymatic reaction was terminated due to chelating of Mg-ions and increased ionic strength, containing 50 mM Tris-HCl pH 7.5, 700 mM NaCl, 20 mM EDTA, and 0.01% (w/v) Tween-20. Importantly Eu-cryptate-coupled streptavidin had to be preincubated with a 100-fold molar excess of a random sequence oligonucleotide for 10 min at rt in the dark to block unspecific binding of single stranded RNA to the protein. Subsequently, the blocked streptavidin(-Eu) was mixed with the DNA-probes on ice and kept away from light until use. […]

Row | SMILES | IC50 [1] [nM] | IC50 [2] [nM]
1 | Cc1cc(F)cc(C)c1-c1ccnc2cc(O[C@H](C)C(=O)N3CCCC4(CC4C(=O)O)C3)ccc12 (mixture of isomers) [Compound 174, 5-[rac-(2R)-2-[[4-(4-fluoro-2,6-dimethyl-phenyl)-7-quinolyl]oxy]propanoyl]-5-azaspiro[2.5]octane-2-carboxylic acid] | < 10 | < 20
2 | C[C@@H](Oc1ccc2c(-c3ccc(F)cc3Cl)ccnc2c1)C(=O)N1CCCC(S(N)(=O)=O)C1 (mixture of isomers) [Compound 33, 1-[rac-(2R)-2-[[4-(2-chloro-4-fluoro-phenyl)-7-quinolyl]oxy]propanoyl]piperidine-3-sulfonamide] | < 10 | 100 to 1000
3 | CC(Oc1ccc2c(-c3ccc(F)cc3Cl)ccnc2n1)C(=O)N1CCC[C@H](C(=O)O)C1 (mixture of isomers) [Compound 62, (3S)-1-[2-[[5-(2-chloro-4-fluoro-phenyl)-1,8-naphthyridin-2-yl]oxy]propanoyl]piperidine-3-carboxylic acid] | 10 to 50 | 100 to 1000
4 | CC(Oc1ccc2c(-c3ccc(F)cc3Cl)ccnc2n1)C(=O)N1CCC[C@H](CC(=O)O)C1 (mixture of isomers) [Compound 80, 2-[rac-(3R)-1-[2-[[5-(2-chloro-4-fluoro-phenyl)-1,8-naphthyridin-2-yl]oxy]propanoyl]-3-piperidyl]acetic acid] | 50 to 500 | 1000 to 10000
5 | Cc1cccc(C)c1-c1ccnc2cc(O[C@H](C)C(=O)N3CCCC(S(N)(=O)=O)C3)ccc12 (mixture of isomers) [Compound 119, 1-[rac-(2R)-2-[[4-(2,6-dimethylphenyl)-7-quinolyl]oxy]propanoyl]piperidine-3-sulfonamide] | < 10 | < 20
6 | C[C@@H](Oc1ccc2c(-c3ccc(F)cc3Cl)ccnc2c1)C(=O)N1CCCC(CS(N)(=O)=O)C1 (mixture of isomers) [Compound 123, [1-[rac-(2R)-2-[[4-(2-chloro-4-fluoro-phenyl)-7-quinolyl]oxy]propanoyl]-3-piperidyl]methanesulfonamide] | 50 to 500 | 100 to 1000
7 | C[C@@H](Oc1ccc2c(-c3c(Cl)cc(F)cc3Cl)ccnc2c1)C(=O)N1CCCC2(CC2C(=O)O)C1 (mixture of isomers) [Compound 177, 5-[rac-(2R)-2-[[4-(2,6-dichloro-4-fluoro-phenyl)-7-quinolyl]oxy]propanoyl]-5-azaspiro[2.5]octane-2-carboxylic acid] | < 10 | < 20
8 | Cc1cc(F)cc(C)c1-c1ccnc2cc(O[C@H](C)C(=O)N3CCCC(C4(O)CC4)C3)ccc12 (mixture of isomers) [Compound 180, rac-(2R)-2-[[4-(4-fluoro-2,6-dimethyl-phenyl)-7-quinolyl]oxy]-1-[3-(1-hydroxycyclopropyl)-1-piperidyl]propan-1-one] | < 10 | < 20
9 | Cc1ccccc1-c1ccnc2cc(O[C@H](C)C(=O)N3CCC[C@H](C(=O)O)C3)ccc12 [Compound 1, (3S)-1-[(2R)-2-[[4-(o-tolyl)-7-quinolyl]oxy]propanoyl]piperidine-3-carboxylic acid] | < 10 | < 20
10 | Cc1cccc(C)c1-c1ccnc2cc(O[C@H](C)C(=O)N3CCC[C@@H](S(N)(=O)=O)C3)ccc12 [Compound 172, (3R)-1-[(2R)-2-[[4-(2,6-dimethylphenyl)-7-quinolyl]oxy]propanoyl]piperidine-3-sulfonamide] | – | < 20

Further lines, results first:

Row | IC50 [1] [nM] | IC50 [2] [nM] | SMILES
11 | 10 to 50 | 20 to 100 | C[C@@H](Oc1ccc2c(-c3c(Cl)cc(F)cc3Cl)ccnc2c1)C(=O)N1CCCC(C2(C(=O)O)CC2)C1 (mixture of isomers) [Compound 196, 1-[1-[rac-(2R)-2-[[4-(2,6-dichloro-4-fluoro-phenyl)-7-quinolyl]oxy]propanoyl]-3-piperidyl]cyclopropanecarboxylic acid]
12 | < 10 | < 20 | Cc1cc(F)cc(C)c1-c1ccnc2cc(O[C@H](C)C(=O)N3CCCC(C4(C(=O)O)CC4)C3)ccc12 (mixture of isomers) [Compound 182, 1-[1-[rac-(2R)-2-[[4-(4-fluoro-2,6-dimethyl-phenyl)-7-quinolyl]oxy]propanoyl]-3-piperidyl]cyclopropanecarboxylic acid]
13 | < 10 | < 20 | Cc1cc(F)cc(C)c1-c1ccnc2cc(O[C@H](C)C(=O)N3CCCC(C(C)(C)C(=O)O)C3)ccc12 (mixture of isomers) [Compound 186, 2-methyl-2-[1-[rac-(2R)-2-[[4-(4-fluoro-2,6-dimethyl-phenyl)-7-quinolyl]oxy]propanoyl]-3-piperidyl]propanoic acid]
14 | < 10 | < 20 | Cc1cc(F)cc(C)c1-c1ccnc2cc(O[C@H](C)C(=O)N3C(C)CCCC3C)ccc12 (mixture of isomers) [Compound 191, rac-(2R)-1-(2,6-dimethyl-1-piperidyl)-2-[[4-(4-fluoro-2,6-dimethyl-phenyl)-7-quinolyl]oxy]propan-1-one]
15 | 10 to 50 | 20 to 100 | C[C@@H](Oc1ccc2c(-c3ccc(F)cc3Cl)ccnc2c1)C(=O)N1CCCC(C2(C(=O)O)CC2)C1 (mixture of isomers) [Compound 194, 1-[1-[rac-(2R)-2-[[4-(2-chloro-4-fluoro-phenyl)-7-quinolyl]oxy]propanoyl]-3-piperidyl]cyclopropanecarboxylic acid]
16 | < 10 | 20 to 100 | CC1CCCCN1C(=O)[C@@H](C)Oc1ccc2c(-c3ccc(F)cc3Cl)ccnc2c1 (mixture of isomers) [Compound 200, rac-(2R)-2-[[4-(2-chloro-4-fluoro-phenyl)-7-quinolyl]oxy]-1-(2-methyl-1-piperidyl)propan-1-one]
17 | 10 to 50 | 100 to 1000 | C[C@@H](Oc1ccc2c(-c3c(Cl)cc(F)cc3Cl)ccnc2c1)C(=O)N1CCCC(C2(O)CC2)C1 (mixture of isomers) [Compound 203, rac-(2R)-2-[[4-(2,6-dichloro-4-fluoro-phenyl)-7-quinolyl]oxy]-143-(1-hydroxycyclopropyl)-1-piperidyl]propan-1-one]
18 | – | 1000 to 10000 | C[C@@H](Oc1ccc2c(-c3ccc(F)cc3Cl)ccnc2c1)C(=O)N1C[C@H]2C[C@@H]1CN2 [Compound 217, (2R)-2-[[4-(2-chloro-4-fluoro-phenyl)-7-quinolyl]oxy]-1-[(1R)-2,5-diazabicyclo[2.2.1]heptan-2-yl]propan-1-one]
19 | – | 1000 to 10000 | C[C@@H](Oc1ccc2c(-c3ccc(F)cc3Cl)ccnc2c1)C(=O)N1CC2(COC2)C1 [Compound 218, (2R)-2-[[4-(2-chloro-4-fluoro-phenyl)-7-quinolyl]oxy]-1-(2-oxa-6-azaspiro[3.3]heptan-6-yl)propan-1-one]
